Results reported in paper PMC10938758, “A phenotypic screen of the Global Health Priority Box identifies an insecticide with anthelmintic activity” (Parasites & Vectors, 2024).
pIC50: −log10 of the molar value.

Key:
[1] = test system: adult females of H. contortus; experiment: Motility of H. contortus adult females (video scoring); set-up: species or system Haemonchus contortus; details: 40 μM
Description: The activity of two test compounds was assessed on adult female specimens of H. contortus in an established assay. The compound was added in triplicate to the wells of a 24-well plate (Corning, USA) at a concentration of 40 μM in 500 μl of RPMI*. Two positive-control compounds, monepantel and moxidectin, and a negative control containing 1% (v/v) DMSO only were included in triplicate on the same plate. Three adult females were added to each of the triplicate wells containing either the test compound or the controls and placed in a CO2 incubator (10% [v/v] CO2, 38 °C, > 90% relative humidity) for 24 h. A video recording (30 s) of each well was taken at 3 h, 6 h, 12 h and 24 h during the total incubation period to assess the reduction in worm motility, which was scored as 3 (‘good’), 2 (‘low’), 1 (‘very low’) or 0 (‘no movement’; cf.). For each test or control compound, the motility scores for each of the triplicate wells were calculated, normalised with reference to the negative control (100% motility) and recorded as a percentage. A two-way ANOVA with a Tukey multiple comparison test was used to establish statistically significant differences in worm motility.

[2] = test system: acetylcholine esterase (AChE); details: in vitro and in vivo; direct or indirect effect not confirmed; cited from earlier work
H. contortus larvae = experiment: H. contortus dose-response assay, larval development; set-up: species or system Haemonchus contortus; details: Haemonchus contortus, 168 h, read-out: IC50, inhibition of H. contortus larval development
Description: The dose–response assay for H. contortus followed a well-established protocol; it was employed to evaluate the potency of hit compounds against this nematode. Test compounds were assessed individually for an effect on the motility of xL3s (10-point, twofold serial dilution in LB*, 40–0.16 μM). One compound, monepantel (prepared in the same manner as the test compounds), was used as a positive control. A solution of LB* was used as a negative control. The test and positive-control compounds were arrayed in triplicate across individual flat-bottom 96-well microplates, with six wells on each plate containing the negative control. Three hundred xL3s of H. contortus in 50 μl of LB* were added to each well to give a final volume of 100 μl. Plates were then placed in a CO2 incubator (10% [v/v] CO2, 38 °C, > 90% humidity). After 168 h of incubation, worm activity was captured using a WMicroTracker ONE unit. Over a period of 15 min, disturbance of an infrared beam in individual wells was recorded as a worm activity count. Raw activity counts for each well were normalised to the negative controls. The compound concentrations were log10-transformed and fitted using a variable-slope four-parameter equation, using the ordinary least squares fit model, employing GraphPad Prism (v.9.1.0). Larval development was established at 168 h of incubation with compound, as described previously. The development inhibition and phenotypes of larvae were examined microscopically. A one-way analysis of variance (ANOVA) with a Tukey multiple comparison test or an unpaired t-test was used to establish statistically significant differences in larval motility or development.

[3] = test system: exsheathed third-stage larvae (xL3s) of Haemonchus contortus; experiment: Primary screen, H. contortus larval development and phenotype (microscopy); details: 20 µM, 168 h
Description: An established high-throughput phenotypic screening assay was used to test the anthelmintic activity of compounds on H. contortus xL3s. Compounds were assessed for motility inhibition at a concentration of 20 µM in LB*. […] A solution of LB* + 1% (v/v) DMSO was used as a negative control. Test compounds were distributed amongst one flat-bottom, 384-well microplate (cat no. 3860; Corning, Corning, NY, USA). Eighty xL3s of H. contortus in 20 µl of LB* were added to each well to give a final volume of 40 µl. The plate was then placed in a CO2 incubator (10% [v/v] CO2, 38 °C, > 90% humidity). At 90 h, worm activity was captured using a WMicroTracker ONE unit (Phylumtech, Sunchales, Santa Fe, Argentina). Over a period of 15 min, disturbance of an infrared beam in individual wells was recorded as a worm ‘activity count’. Activity counts were then normalised to the positive and negative controls using the GraphPad Prism program (v.9.1.0 GraphPad Software, San Diego, CA, USA). The screening plate was then returned to the incubator (10% [v/v] CO2, 38 °C, > 90% humidity) for an additional 72 h. At 168 h, worms were fixed with 40 µl of Lugol solution (Sigma-Aldrich, St. Louis, MO, USA). Compounds were then assessed (microscopically) for inhibition of larval development and/or induction of a non-wild-type phenotype in H. contortus worms. […] The performance of the assay was monitored using the Z′-factor [58] calculated using data for the negative (DMSO) and positive (M-666) control compounds on individual plates.

CC(F)c1ncnc(NCCc2ccc(OC(F)(F)F)cc2)c1Cl (stereo not drawn) [MMV1794206, flufenerim]
Reduction of motility of adult females of H. contortus ([1]; 3 h): ~ 33% | Reduction of motility of adult females of H. contortus ([1]; 6 h): ~89% | Reduction of motility of adult females of H. contortus ([1]; 12 h): 100% | Reduction of motility of adult females of H. contortus ([1]; 24 h): ~100% | AChE activity in whiteflies following treatment [2]: decrease in acetylcholine esterase (AChE) activity | pIC50 (H. contortus larvae): 5.92 | Abnormal phenotype ([3]; H. contortus larvae): Cur | Induction of an abnormal phenotype (in words) ([3]; H. contortus larvae): induced an abnormal phenotype | inhibition at 20 µM ([3]; Haemonchus contortus, H. contortus, read-out: Larval development inhibition, %): 100%
